Here are results for three compounds from patent US10231453B2, “5-substituted imidazole derivatives” (BAYER CROPSCIENCE AKTIENGESELLSCHAFT, priority 2015, dated 2019).

Structures are written as SMILES.

What is called chromatographic logP is a lipophilicity value derived from retention on a column. Low readings indicate lower lipophilicity, high ones higher lipophilicity.

Test system in the first data set: not listed separately
Kind of data set: Measurement of LogP values by HPLC on reversed phase columns (EEC directive 79/831 Annex V.A8). Format: physicochemical. The conditions noted are these: method [a]: LC-UV, acidic range, 0.1% formic acid in water and acetonitrile as eluent; Table 1. As for the experimental part: Measurement of Log P values was performed as outlined above.
`N#Cc1cncn1CC(O)(Cc1ccc(F)cc1F)C1(F)CC1` (stereo not drawn) [Example I-97]: the chromatographic logP turned out to be 2.39.
`N#Cc1cncn1CC(O)(Cc1cccc(F)c1F)C1(Cl)CC1` (stereo not drawn) [Example I-146] displayed a chromatographic logP of 2.75.
`N#Cc1cncn1CC(O)(Cc1cccnc1Cl)C1(Cl)CC1` (stereo not drawn) [Example I-26] showed a chromatographic logP of 2.01.

The test system of the next data set is Botrytis cinerea. The experiment in a line: In vivo preventive test on Botrytis cinerea (grey mould) on gherkin, Examples B, Q1 and R2. The conditions noted are these: Botrytis cinerea, 500 ppm of active ingredient, preventive spray, evaluated 4 to 5 days after inoculation, read-out: efficacy.
On to `N#Cc1cncn1CC(O)(Cc1cccc(F)c1F)C1(Cl)CC1` (stereo not drawn) [Example I-146], for which the pest or weed control at 500 ppm lay within 90 to 100%.

The next data set has as its system Puccinia recondita. Kind of data set: In vivo preventive test on Puccinia recondita (brown rust on wheat), Examples C and R3. The conditions noted are these: Puccinia recondita, 264 h; 500 ppm of active ingredient; wheat, preventive spray, evaluated 11 days after inoculation; read-out: efficacy.
For the compound `N#Cc1cncn1CC(O)(Cc1ccc(F)cc1F)C1(F)CC1` (stereo not drawn) [Example I-97], the pest or weed control at 500 ppm lay in the range of 90 to 100%.
Regarding `N#Cc1cncn1CC(O)(Cc1cccc(F)c1F)C1(Cl)CC1` (stereo not drawn) [Example I-146], the pest or weed control at 500 ppm lay in the range of 90 to 100%.
Still for that read-out and setting: as for `N#Cc1cncn1CC(O)(Cc1cccnc1Cl)C1(Cl)CC1` (stereo not drawn) [Example I-26], the figure is 90 to 100%.

The subject of another data set is Pyrenophora teres. Kind of data set: In vivo preventive test on Pyrenophora teres (net blotch on barley), Examples D, Q2 and R4. The conditions noted are these: Pyrenophora teres, 336 h, 500 ppm of active ingredient, preventive spray, evaluated 14 days after inoculation, read-out: efficacy.
For the compound `N#Cc1cncn1CC(O)(Cc1ccc(F)cc1F)C1(F)CC1` (stereo not drawn) [Example I-97], the pest or weed control at 500 ppm fell in the range of 80 to 89%.
For `N#Cc1cncn1CC(O)(Cc1cccc(F)c1F)C1(Cl)CC1` (stereo not drawn) [Example I-146], the pest or weed control at 500 ppm is 90 to 100%.

The subject of another data set is Septoria tritici. The experiment in a line: In vivo preventive test on Septoria tritici (leaf spot on wheat), Examples E, Q3 and R5. The conditions noted are these: Zymoseptoria tritici, 576 h, 500 ppm of active ingredient; wheat, preventive spray, evaluated 24 days after inoculation; read-out: efficacy.
Regarding `N#Cc1cncn1CC(O)(Cc1ccc(F)cc1F)C1(F)CC1` (stereo not drawn) [Example I-97], the pest or weed control at 500 ppm was 90 to 100%.
Same read-out and setting: as for `N#Cc1cncn1CC(O)(Cc1cccc(F)c1F)C1(Cl)CC1` (stereo not drawn) [Example I-146], the figure is 90 to 100%.
Same read-out and setting: as for `N#Cc1cncn1CC(O)(Cc1cccnc1Cl)C1(Cl)CC1` (stereo not drawn) [Example I-26], the figure is 90 to 100%.

The next data set relates to Sphaerotheca fuliginea. The experiment in a line: In vivo preventive test on Sphaerotheca fuliginea (powdery mildew on cucurbits), Examples F and R6. The conditions noted are these: Podosphaera fuliginea, 360 h; 500 ppm of active ingredient; gherkin, preventive spray, evaluated 15 days after inoculation; read-out: efficacy.
Regarding `N#Cc1cncn1CC(O)(Cc1ccc(F)cc1F)C1(F)CC1` (stereo not drawn) [Example I-97], the pest or weed control at 500 ppm is 90 to 100%.
For `N#Cc1cncn1CC(O)(Cc1cccc(F)c1F)C1(Cl)CC1` (stereo not drawn) [Example I-146], the pest or weed control at 500 ppm lay within 90 to 100%.
Turning to `N#Cc1cncn1CC(O)(Cc1cccnc1Cl)C1(Cl)CC1` (stereo not drawn) [Example I-26], the pest or weed control at 500 ppm is 90 to 100%.

The test system of a further data set is Uromyces appendiculatus. Kind of data set: In vivo preventive test on Uromyces appendiculatus (bean rust), Examples G and R7. The conditions noted are these: 264 h, 500 ppm of active ingredient, bean, preventive spray, evaluated 11 days after inoculation, read-out: efficacy.
Turning to `N#Cc1cncn1CC(O)(Cc1ccc(F)cc1F)C1(F)CC1` (stereo not drawn) [Example I-97], the pest or weed control at 500 ppm was 90 to 100%.
On to `N#Cc1cncn1CC(O)(Cc1cccc(F)c1F)C1(Cl)CC1` (stereo not drawn) [Example I-146], for which the pest or weed control at 500 ppm is 90 to 100%.
With `N#Cc1cncn1CC(O)(Cc1cccnc1Cl)C1(Cl)CC1` (stereo not drawn) [Example I-26], the pest or weed control at 500 ppm was 90 to 100%.

In a further data set the test system is Alternaria solani. Kind of data set: In vivo preventive Alternaria test (tomatoes), Example H. The following applies: 72 h, 100 ppm of active ingredient, preventive spray, evaluated 3 days after inoculation, read-out: efficacy.
Take `N#Cc1cncn1CC(O)(Cc1ccc(F)cc1F)C1(F)CC1` (stereo not drawn) [Example I-97]: the pest or weed control at 100 ppm was in the range of 80 to 89%.
Regarding `N#Cc1cncn1CC(O)(Cc1cccc(F)c1F)C1(Cl)CC1` (stereo not drawn) [Example I-146], the pest or weed control at 100 ppm is 90 to 100%.
Still for that read-out and setting: as for `N#Cc1cncn1CC(O)(Cc1cccnc1Cl)C1(Cl)CC1` (stereo not drawn) [Example I-26], the figure is 80 to 89%.

A further data set deals with Phakopsora pachyrhizi. Kind of data set: In vivo preventive Phakopsora test (soybeans), Example I. The conditions noted are these: 168 h, 100 ppm of active ingredient, preventive spray, evaluated 7 days after inoculation, read-out: efficacy.
Turning to `N#Cc1cncn1CC(O)(Cc1ccc(F)cc1F)C1(F)CC1` (stereo not drawn) [Example I-97], the pest or weed control at 100 ppm lay in the range of 90 to 100%.
Same read-out and setting: as for `N#Cc1cncn1CC(O)(Cc1cccc(F)c1F)C1(Cl)CC1` (stereo not drawn) [Example I-146], the figure is 90 to 100%; as for `N#Cc1cncn1CC(O)(Cc1cccnc1Cl)C1(Cl)CC1` (stereo not drawn) [Example I-26], 70 to 79%.

In a further data set the test system is Blumeria graminis fsp. hordei. Kind of data set: In vivo preventive Blumeria test (barley), Example K. The following applies: 168 h, 500 ppm of active ingredient, preventive spray, evaluated 7 days after inoculation, read-out: efficacy. An excerpt:
After the spray coating has been dried, the plants are dusted with spores of Blumeria graminis fsp. hordei.
As to `N#Cc1cncn1CC(O)(Cc1ccc(F)cc1F)C1(F)CC1` (stereo not drawn) [Example I-97], the pest or weed control at 500 ppm lay within 90 to 100%.
On the same count and under the same terms, as for `N#Cc1cncn1CC(O)(Cc1cccc(F)c1F)C1(Cl)CC1` (stereo not drawn) [Example I-146], the figure is 90 to 100%; as for `N#Cc1cncn1CC(O)(Cc1cccnc1Cl)C1(Cl)CC1` (stereo not drawn) [Example I-26], 90 to 100%.

In a further data set the test system is Fusarium culmorum. The experiment in a line: In vivo preventive Fusarium culmorum test (wheat), Example L. The following applies: 120 h, 500 ppm of active ingredient, preventive spray, evaluated 5 days after inoculation, read-out: efficacy. On the procedure: After the spray coating has been dried, the plants are slightly injured by using a sandblast and afterwards they are sprayed with a conidia suspension of Fusarium culmorum.
The test is evaluated 5 days after the inoculation.
As to `N#Cc1cncn1CC(O)(Cc1ccc(F)cc1F)C1(F)CC1` (stereo not drawn) [Example I-97], the pest or weed control at 500 ppm lay in the range of 90 to 100%.
On to `N#Cc1cncn1CC(O)(Cc1cccnc1Cl)C1(Cl)CC1` (stereo not drawn) [Example I-26], for which the pest or weed control at 500 ppm was 90 to 100%.

For the next data set, the system named is Fusarium graminearum. Kind of data set: whole plant or invertebrate. The data set is classed as in vivo. The conditions noted are these: in Hordeum vulgare, 120 h, read-out: efficacy.
Consider `N#Cc1cncn1CC(O)(Cc1ccc(F)cc1F)C1(F)CC1` (stereo not drawn) [Example I-97], for which the pest or weed control at 500 ppm fell in the range of 90 to 100%.
Consider `N#Cc1cncn1CC(O)(Cc1cccc(F)c1F)C1(Cl)CC1` (stereo not drawn) [Example I-146], for which the pest or weed control at 500 ppm was 90 to 100%.

The test system of the next data set is Leptosphaeria nodorum. The experiment in a line: In vivo preventive Leptosphaeria nodorum test (wheat), Example N. The following applies: Parastagonospora nodorum, 192 h, 500 ppm of active ingredient, preventive spray, evaluated 8 days after inoculation, read-out: efficacy. From the text: After the spray coating has been dried, the plants are sprayed with a spore suspension of Leptosphaeria nodorum.
As for `N#Cc1cncn1CC(O)(Cc1cccc(F)c1F)C1(Cl)CC1` (stereo not drawn) [Example I-146], the pest or weed control at 500 ppm lay within 90 to 100%.
With `N#Cc1cncn1CC(O)(Cc1cccnc1Cl)C1(Cl)CC1` (stereo not drawn) [Example I-26], the pest or weed control at 500 ppm was in the range of 70 to 79%.

The next data set concerns Fusarium nivale (var. majus). Kind of data set: In vivo preventive Fusarium nivale (var. majus) test (wheat), Example O. The following applies: Microdochium nivale, 120 h, 500 ppm of active ingredient, preventive spray, evaluated 5 days after inoculation, read-out: efficacy. An excerpt:
After the spray coating has been dried, the plants are slightly injured by using a sandblast and afterwards they are sprayed with a conidia suspension of Fusarium nivale (var. majus).
Consider `N#Cc1cncn1CC(O)(Cc1ccc(F)cc1F)C1(F)CC1` (stereo not drawn) [Example I-97], for which the pest or weed control at 500 ppm is 90 to 100%.
Still for that read-out and setting: as for `N#Cc1cncn1CC(O)(Cc1cccc(F)c1F)C1(Cl)CC1` (stereo not drawn) [Example I-146], the figure is 90 to 100%.
Still for that read-out and setting: as for `N#Cc1cncn1CC(O)(Cc1cccnc1Cl)C1(Cl)CC1` (stereo not drawn) [Example I-26], the figure is 90 to 100%.

Another data set has as its system Pyricularia oryzae. The experiment in a line: whole plant or invertebrate. Format: in vivo. The following applies: 192 h, read-out: efficacy.
`N#Cc1cncn1CC(O)(Cc1ccc(F)cc1F)C1(F)CC1` (stereo not drawn) [Example I-97]: the pest or weed control at 500 ppm fell in the range of 70 to 79%.
Still for that read-out and setting: as for `N#Cc1cncn1CC(O)(Cc1cccc(F)c1F)C1(Cl)CC1` (stereo not drawn) [Example I-146], the figure is 70 to 79%; as for `N#Cc1cncn1CC(O)(Cc1cccnc1Cl)C1(Cl)CC1` (stereo not drawn) [Example I-26], 80 to 89%.

The subject of another data set is Venturia inaequalis. Kind of data set: In vivo preventive Venturia test (apples), Example J. The following applies: 240 h, read-out: efficacy.
Protocol: After the spray coating has dried on, the plants are inoculated with an aqueous conidia suspension of the causal agent of apple scab (Venturia inaequalis) and then remain for 1 day in an incubation cabinet at approximately 20° C. and a relative atmospheric humidity of 100%.
The plants are then placed in a greenhouse at approximately 21° C. and a relative atmospheric humidity of approximately 90%.
The test is evaluated 10 days after the inoculation.
In the case of `N#Cc1cncn1CC(O)(Cc1ccc(F)cc1F)C1(F)CC1` (stereo not drawn) [Example I-97], the pest or weed control at 100 ppm was 80 to 89%.
The same measure, in the same setting: as for `N#Cc1cncn1CC(O)(Cc1cccc(F)c1F)C1(Cl)CC1` (stereo not drawn) [Example I-146], the figure is 90 to 100%; as for `N#Cc1cncn1CC(O)(Cc1cccnc1Cl)C1(Cl)CC1` (stereo not drawn) [Example I-26], 90 to 100%.
